Data reported in US8633319B2, “7-(1H-pyrazol-4-yl)-1,6-naphthyridine compounds as Syk inhibitors” (Glaxo Group Limited, priority 2010, dated 2014).
Where two headings read alike, the source gives them in different places.

Key:
Ramos B cells = test: Ramos pErk Assay; format: cell-based; conditions: Homo sapiens, as the hydrochloride salts, anti-IgM stimulated
Procedure: Ramos B cells (human B cells of Burkitt's Lymphoma) are stimulated using anti-IgM. […] The subsequent autophosphorylation of Syk leads to initiation of a signalling cascade resulting in B cell activation via the Erk MAP Kinase pathway. As a result Erk is phosphorylated and following cell lysis is detected by an immune capture assay.
Cells were plated at a density of 2.5×10^5/well in a volume of 25 μl assay medium (RPMI containing 10% heat inactivated foetal calf serum, 1% L-glutamine) in 96 v-well polypropylene plates. 25 μl appropriately diluted compound solution was added and the plate incubated for 30 min at 37° C. with 5% CO2. Cells were stimulated with 5 μl Fab′2 fragments of goat anti-human IgM (5 μg/ml final) for 7 min at 37° C. Cells are lysed by the addition of 55 μL 2×RIPA lysis buffer for 2 h at 4° C. Lysate may be frozen at this point at −80° C.
50 μl cell lysate was transferred to a 96 well MSD plate coated with anti-pErk1/2 (Thr/Tyr:202/204; 185/187) capture antibody and incubated for 16 hours at 4° C. or 3 hours at room temperature. The plate was washed and an anti-pErk detection antibody added (25 μl/well) for 1 hour at room temperature. This was removed, 150 μL MSD read buffer added and the resultant electrochemiluminescence signal measured.
Compound was prepared as a 10 mM stock in DMSO and a dilution series prepared in DMSO using 9 successive 5-fold dilutions. This dilution series was diluted a further 1:100 with assay medium to give the final concentration range to be tested of 5×10^−5 to 2.56×10^−11M. Compound dilutions were prepared using the Biomek 2000 and Biomek Nx automated robotic pipetting systems.

hERG = target: T1, hERG (Homo sapiens, UniProt Q12809); test: Cy3B Dofetilide Fluoro-Ligand Binding Assay for hERG; conditions: membranes of CHO-K1 cells that express hERG, pH 7.4, probe Cy3b-Dofetilide fluoro-ligand, 1.0 nM, hERG-expressing CHO-K1 membranes
T1 construct: expressed in transfected cells; host or cells: CHO-K1 cells stably expressing human hERG; membrane fraction
T1 sequence (Q12809 whole entry): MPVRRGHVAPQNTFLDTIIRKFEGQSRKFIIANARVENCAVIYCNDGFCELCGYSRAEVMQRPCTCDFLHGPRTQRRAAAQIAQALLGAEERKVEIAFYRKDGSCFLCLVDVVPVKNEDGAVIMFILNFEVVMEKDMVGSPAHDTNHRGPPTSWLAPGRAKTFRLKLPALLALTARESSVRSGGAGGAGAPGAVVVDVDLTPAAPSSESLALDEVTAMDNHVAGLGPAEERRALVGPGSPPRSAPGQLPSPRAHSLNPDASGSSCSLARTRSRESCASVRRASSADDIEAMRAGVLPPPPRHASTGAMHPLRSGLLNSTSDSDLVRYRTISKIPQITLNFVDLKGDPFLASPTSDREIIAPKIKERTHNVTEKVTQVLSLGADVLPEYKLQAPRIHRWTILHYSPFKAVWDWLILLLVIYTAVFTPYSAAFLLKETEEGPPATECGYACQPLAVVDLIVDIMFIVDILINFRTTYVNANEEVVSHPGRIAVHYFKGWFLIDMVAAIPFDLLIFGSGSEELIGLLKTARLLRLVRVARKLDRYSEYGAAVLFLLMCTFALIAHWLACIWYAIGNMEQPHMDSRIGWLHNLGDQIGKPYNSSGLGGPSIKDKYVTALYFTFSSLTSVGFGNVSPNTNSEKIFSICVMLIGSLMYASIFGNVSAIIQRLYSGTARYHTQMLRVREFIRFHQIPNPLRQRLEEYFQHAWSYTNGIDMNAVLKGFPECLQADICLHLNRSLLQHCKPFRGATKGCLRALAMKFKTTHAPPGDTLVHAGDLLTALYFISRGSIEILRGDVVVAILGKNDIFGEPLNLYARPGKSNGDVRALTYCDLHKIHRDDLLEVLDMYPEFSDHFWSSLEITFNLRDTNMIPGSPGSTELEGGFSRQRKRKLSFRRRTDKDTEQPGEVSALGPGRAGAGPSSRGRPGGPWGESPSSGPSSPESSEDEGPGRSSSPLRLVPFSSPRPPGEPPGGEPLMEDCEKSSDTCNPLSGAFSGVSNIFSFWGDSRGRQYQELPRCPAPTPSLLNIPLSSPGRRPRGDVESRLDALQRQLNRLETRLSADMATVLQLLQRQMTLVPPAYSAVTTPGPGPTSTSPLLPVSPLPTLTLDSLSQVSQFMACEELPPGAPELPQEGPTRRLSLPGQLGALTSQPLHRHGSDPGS
Procedure: Compound potencies were determined by a fluoro-ligand^§ (Cy3b-Dofetilide) fluorescence polarisation assay.
hERG-expressing CHO-K1 membranes* (60 μg/ml) were incubated with 1.0 nM fluoro-ligand^§, in assay buffer (25 mM HEPES, 1.2 mM MgCl2, 100 mM KCl and 0.1% pluronic, pH adjusted to 7.4 using 5M KOH). The final potassium concentration in the assay was 100 mM. After 70 min mixing at room temperature, in the dark, 10 μl was dispensed into each well of a black LV Greiner 384-well plate containing 0.1 μl of test compound in DMSO. The plates were left to equilibrate for 2 h before reading on an Acquest™/Analyst™ imager. pIC50 data were generated using from an 11-point inhibition curve (top assay concentration of 50 μM and a 1:3 step-dilution), a […] curve-fit being applied using ABase and XC50 to analyse data and generate curve fits.
Chinese Hamster Ovary (CHO) cells stably expressing the human hERG receptor were grown to 80% confluency before being harvested by trypsinisation and subsequent centrifugation at 500 g for 10 min. Cell pellets were frozen at −80 C before membrane production. The frozen pellet was thawed on ice, re-suspended and homogenised in 10 volumes of membrane buffer (50 mM HEPES, pH 7.4, 1 mM EDTA, 1 mM PMSF, 2×10^-6M Pepstatin A). The membrane suspension was centrifuged for 20 min at 500 g, the pellet discarded and the supernatent spun again at 48,000 g for 30 min. Following the second centrifugation the remaining pellet containing the membrane fraction was re-suspended in an appropriate volume (4 ml for each ml of frozen cell pellet) and assayed for protein concentration.

[1] = as the free base, read-out: average IC50
[2] = form not stated (first list), read-out: average pIC50 (converted)
[3] = hydrochloric acid salts, read-out: average IC50
[4] = hydrochloric acid salts, read-out: average pIC50 (converted)

| SMILES | IC50 (Ramos B cells) [nM] | IC50 at 2 h (hERG; [1]) [µM] | IC50 at 2 h (hERG; [2]) [µM] | IC50 at 2 h (hERG; [3]) [µM] | IC50 at 2 h (hERG; [4]) [µM] |
| --- | --- | --- | --- | --- | --- |
| CCn1cc(-c2cc3ncccc3c(OC[C@]3(F)CCCNC3)n2)cn1 [Example 4, 7-(1-Ethyl-1H-pyrazol-4-yl)-5-({[(3S)-3-fluoro-3-piperidinyl]methyl}oxy)-1,6-naphthyridine] | < 1000 | > 10 | > 10 | > 20 | > 10 |
| COCn1cc(-c2cc3ncccc3c(NC[C@]3(F)CCCNC3)n2)cn1 [Example 3, N-{[(3S)-3-Fluoro-3-piperidinyl]methyl}-7-{1-[(methyloxy)methyl]-1H-pyrazol-4-yl}-1,6-naphthyridin-5-amine] | < 1000 | > 10 | > 10 | > 20 | > 10 |
| CCn1cc(-c2cc3ncccc3c(NC[C@]3(F)CCCNC3)n2)cn1 [Example 1, 7-(1-Ethyl-1H-pyrazol-4-yl)-N-{[(3S)-3-fluoro-3-piperidinyl]methyl}-1,6-naphthyridin-5-amine] | < 1000 | > 10 | > 10 | > 20 | > 10 |
| CC(C)(C)n1cc(-c2cc3ncccc3c(NC[C@]3(F)CCCNC3)n2)cn1 [Example 2, 7-[1-(1,1-Dimethylethyl)-1H-pyrazol-4-yl]-N-{[(3S)-3-fluoro-3-piperidinyl]methyl}-1,6-naphthyridin-5-amine] | < 1000 | > 10 | > 10 | > 20 | > 10 |
